{"source": "patent US11998028B2", "about": "“Polypeptide for hydrolytic cleavage of zearalenone and/or zearalenone derivatives, isolated polynucleotide thereof as well as a polypeptide containing an additive, use of same as well as a process” (priority 2013, dated 2024)", "key": {"estrogenic effect": {"test_system": "estrogenic effect", "conditions": "cited from earlier work"}, "[1]": {"conditions": "relatively low acute toxicity; cited from earlier work"}, "pigs": {"test_system": "pigs", "conditions": "cited from earlier work"}, "[2]": {"test_system": "polypeptide (hydrolase / zonase) with sequence ID no. 1, C-terminal 6×His tag", "assay": "Enzyme kinetics of ZEN hydrolysis to HZEN, photometric at 315 nm", "format": "biochemical", "conditions": "ZEN substrate, 50 mM Tris-HCl pH 8.2, 32° C.", "experimental": "The soluble cell lysate in the case of E. coli and/or the culture supernatant in the case of P. pastoris was/were used for determination of the catalytic properties of the polypeptides. To determine the KM value, vmax, kcat and the specific activity, the polypeptides were selectively enriched chromatographically by standard methods over nickel-Sepharose columns. The determination of the protein concentration was performed by means of standard methods, either being calculated by the BCA method (Pierce BCA Protein Assay KitProd #23225) or preferably photometrically with the specific extinction coefficients for the respective proteins that are available online with the ProtParam program at http://web.expasy.org/protparam (Gasteiger E. et al.; Protein Identification and Analysis Tools on the ExPASy Server, in John M. Walker (ed): The Proteomics Protocols Handbook, Humana Press, 2005, pp. 571-607).\nThe preparation, enrichment and purification of the polypeptides and/or variants thereof were performed as described in example 1. Degradation of ZEN to HZEN was measured on the basis of the reduction in absorption at the wavelength of 315 nm. […] The extinction coefficients have a strong dependence on pH and therefore the activity must always be measured precisely at the same pH and preferably also in the same matrix. The measurements were performed in a 50 mM Tris-HCl pH=8.2 buffer solution in quartz cuvettes in a wavelength range of 200 to 2500 nm in a UV-VIS photometer (Hitachi U-2001) at 32° C.\nA 2.08 mM ZEN solution (40 vol % ACN+60 vol % H2O) was used as the ZEN substrate stock solution. To prepare this solution, ZEN in crystalline form (Biopure Standard from Romer Labs, article no. 001109, purity at least 98%) was weighed and dissolved accordingly. The ZEN substrate dilutions (0.79 μM, 1.57 μM, 2.36 μM, 3.14 μM, 4.71 μM, 6.28 μM, 7.85 μM, 9.42 μM, 10.99 μM, 12.56 μM, 14.13 μM, 15.71 μM, 17.28 μM and 18.85 μM) were prepared with 50 mM Tris-HCl pH=8.2. The polypeptide solutions were diluted to a final concentration of approximately 70 ng/mL using 50 mM Tris-HCl buffer pH=8.2. The ZEN substrate dilutions were preheated to 32° C. in a water bath.\n100 μL portions of the respective ZEN substrate dilution were mixed with 0.2 μL polypeptide solution, and the absorption was measured for 5 minutes, whereupon each combination of polypeptide solution and ZEN substrate dilution was measured at least twice.\nTaking into account the extinction coefficients of ZEN and HZEN, the reaction rate was calculated for each substance concentration on the basis of the slope in the absorption over time.\nThe designations “KM value” or “Michaelis-Menten constant” relate to a parameter for describing the enzymatic affinity of the units μM or mM, which are calculated with the help of the linear Hanes plots according to H. Bisswang (2002, Enzyme Kinetics, ISBN 3-527-30343-X, page 19), wherein the function “enzyme kinetics, single substrate” in the SigmaPlot 12.0 program is preferably used for this purpose. The designations “catalytic constant of the enzyme reaction” or “kcat value” relate to a parameter for describing the conversion rate of a polypeptide and/or enzyme, which is given in s^−1 and is preferably calculated with the help of the “enzyme kinetic, single substrate” function of the SigmaPlot 12.0 program. The “maximum enzyme rate” or “vmax value” is given in units of μM/s or mM/s and is determined with the help of the linear Hanes plot by analogy with the KM value, wherein the function “enzyme kinetic, single substrate” of the SigmaPlot 12.0 program is preferably used for this.\nThe raw data for determination of the enzyme parameters KM, vmax, kcat and the specific activity are given below for the polypeptide having the sequence ID no. 1."}, "[3]": {"conditions": "cited from earlier work"}, "cattle": {"test_system": "cattle", "conditions": "cited from earlier work"}, "estrogen receptor": {"test_system": "estrogen receptor", "conditions": "cited from earlier work"}, "[4]": {"test_system": "mammalian animals, in particular pigs", "conditions": "cited from earlier work"}}}
{"smiles": "C[C@H]1CCCC(=O)CCCCCc2cc(O)cc(O)c2C(=O)O1", "note": "[ZAN, (11S)-15,17-dihydroxy-11-methyl-12-oxabicyclo-[12.4.0]octadeca-1(18),14,16-triene-7,13-dione]", "values": [{"measurement": "estrogenic effect compared with ZEN", "setting": "estrogenic effect", "value": "much stronger estrogenic effect than ZEN"}]}
{"smiles": "C[C@H]1CCCC(=O)CCC/C=C/c2cc(O)cc(O)c2C(=O)O1", "note": "[ZEN, (2E,11S)-15,17-dihydroxy-11-methyl-12-oxabicyclo[12.4.0]octadeca-1(18),2,14,16-tetraene-7,13-dione]", "values": [{"measurement": "oral LD50", "setting": "[1]", "value": "up to 20,000 mg/kg body weight"}, {"measurement": "ZEN concentration that can result in hyperestrogenicity", "setting": "pigs", "value": "more than 1.5 ppm"}, {"measurement": "Km", "setting": "[2]; Average", "value": 204, "unit": "nM"}, {"measurement": "Vmax", "setting": "[2]; Average", "value": 0.009343, "unit": "µM/s"}, {"measurement": "kcat", "setting": "[2]; Average", "value": 5.12, "unit": "s⁻¹"}, {"measurement": "Km", "setting": "[2]; Measurement 1", "value": 217, "unit": "nM"}, {"measurement": "Vmax", "setting": "[2]; Measurement 1", "value": 0.00993, "unit": "µM/s"}, {"measurement": "kcat", "setting": "[2]; Measurement 1", "value": 5.44, "unit": "s⁻¹"}, {"measurement": "Km", "setting": "[2]; Measurement 2", "value": 190, "unit": "nM"}, {"measurement": "Vmax", "setting": "[2]; Measurement 2", "value": 0.008756, "unit": "µM/s"}, {"measurement": "kcat", "setting": "[2]; Measurement 2", "value": 4.79, "unit": "s⁻¹"}, {"measurement": "absorption through the mucous membranes", "setting": "[3]; in particular gastric mucosa and oral mucosa", "value": "absorbed rapidly"}, {"measurement": "time after oral administration at which ZEN can be detected in blood", "setting": "[3]; oral administration", "value": 30, "unit": "min"}, {"measurement": "ZEN concentration blamed for spontaneous abortions", "setting": "cattle", "value": 12, "unit": "ppm"}, {"measurement": "binding to the estrogen receptor", "setting": "estrogen receptor", "value": "binds to the estrogen receptor"}, {"measurement": "ZEN concentration in feed resulting in developmental disorders", "setting": "[4]", "value": "more than 0.5 ppm"}]}
{"smiles": "C[C@H]1CCC[C@H](O)CCCCCc2cc(O)cc(O)c2C(=O)O1", "note": "[α-ZAL, (7R,11S)-7,15,17-trihydroxy-11-methyl-12-oxabicyclo[12.4.0]octa-deca-1(18),14,16-trien-13-one]", "values": [{"measurement": "estrogenic effect compared with ZEN", "setting": "estrogenic effect", "value": "much stronger estrogenic effect than ZEN"}]}
{"smiles": "C[C@H]1CCC[C@H](O)CCC/C=C/c2cc(O)cc(O)c2C(=O)O1", "note": "[α-ZEL, (2E,7R,11S)-7,15,17-trihydroxy-11-methyl-12-oxabicyclo[12.4.0]-octadeca-1(18),2,14,16-tetraen-13-one]", "values": [{"measurement": "estrogenic effect compared with ZEN", "setting": "estrogenic effect", "value": "much stronger estrogenic effect than ZEN"}]}
